Data set [1] concerns CLL B lymphocytes (CD19+/CD5+). The following applies: for Effect of pre-incubation on PKHB1-mediated cell death in CLL cells: added 30 min before PKHB1 200 μM, BAPTA 5 mM, BAPTA-AM 20 μM, 2-APB 60 μM, dantrolene 40 μM, U73122 200 nM, hSIRPα-Fc 15 μg/ml; for Cytotoxicity / PCD in CLL cells (Annexin-V and PI co-positivity): 200-μM peptides, 2 h of treatment (Fig 1D, 1E). How it is done:
(§1) Mononuclear cells were purified from blood samples using a standard Ficoll-Hypaque gradient, and B cells were positively or negatively selected by magnetic microbeads coupled either to an anti-CD19 monoclonal antibody (positive selection) or to anti-CD16,-CD3, and-CD14 monoclonal antibodies (negative depletion) (Miltenyi Biotech). […] B lymphocytes, MEC-1, and M210B4 bone marrow stromal cells (ATCC) were cultured in complete medium (RPMI 1640 supplemented with 10% fetal calf serum, 2 mM L-glutamine, and 100 U/ml penicillin-streptomycin). In selected experiments, CLL cells were cultured in Ca^2+-free medium (RPMI 1640 without calcium, supplemented with dialyzed 10% fetal calf serum) prior to the induction of cell death.
(§2) Annexin-V-APC (0.1 μg/ml; BD Biosciences) was used for the assessment of phosphatidylserine exposure, propidium iodide (PI, 0.5 μg/ml) for cell viability analysis, and tetramethylrhodamine ethyl ester (TMRE, 20 nM) for mitochondrial transmembrane potential (ΔΨm) quantification. PCD was recorded in a FACSCanto II (BD Biosciences) in the total population (10,000 cells), and data were analyzed using FlowJo software. Chymotrypsin-like serine protease (serpase) or caspase cytofluorometric detection was performed with SerPase or Caspase activity kits from Imgenex (IMI-2301 and IMI-2315). Residual and leukemic B cells from CLL patients were discriminated from the mononuclear blood fraction by double labeling with anti-CD19 PerCP-Cyc5.5 (clone SJ25C1; BD Biosciences) and anti-CD5-PE-Cy7 mAb (clone L17F12; BD Biosciences). T cells from CLL patients were identified by a double anti-CD19 PerCP-Cyc5.5 and anti-CD3-PE-Cy7 (clone SK7; BD Biosciences) staining. Calreticulin cell surface exposure was recorded with anti-calreticulin-PE (clone FMC75; Assay Designs). […] A QuantiBRITE flow cytometry system (BD Biosciences) was used to assess the number of CD47 molecules expressed on normal and CLL B lymphocytes.
To induce PCD, 1 × 10^6 cells/ml were treated for 2 h with PKHB1 (200 μM), 4N1K (300 μM), 4NGG (300 μM), or an anti-CD47 monoclonal antibody ([…], clone B6H12 in soluble or immobilized conditions). To provide pro-survival microenvironment signals, CLL cells were pre-incubated with sCD40L (5 μg/ml) and IL-4 (20 ng/ml) or co-cultured with the M210B4 bone marrow stromal cell line (ATCC) before death was induced. To control for caspase-dependent apoptosis, cells were incubated for 12 h with etoposide (250 μM). For the inhibition assays, BAPTA-AM (20 μM); BAPTA (5 mM); Ru360 (750 nM); dantrolene (40 μM); 2-aminoethoxydiphenyl borate (2-APB, 60 μM); U73122 (200 nM); the broad spectrum caspase inhibitors Q-VD-OPh (QVD, 10 μM) and z-VAD-FMK (50 μM); the specific caspase inhibitors z-DEVD-FMK (50 μM, caspase-3/7), z-LEHD-FMK (50 μM, […]), and z-IETD-FMK (50 μM, […]); the serpase inhibitor TPCK (20 μM); or the fusion protein hSIRPα-Fc (15 μg/ml) was added 30 min before inducing PCD.

The test system of the next data set is MEC-1 cells. Kind of data set: Cell death by Annexin-V/PI in MEC-1 cells. It counts as cell-based, human. The following applies: PKHB1 200 μM, 2 h; etoposide 250 μM, 12 h (S7, S8 Figs). How it is done:
as §1
Annexin-V-APC (0.1 μg/ml; BD Biosciences) was used for the assessment of phosphatidylserine exposure, propidium iodide (PI, 0.5 μg/ml) for cell viability analysis, and tetramethylrhodamine ethyl ester (TMRE, 20 nM) for mitochondrial transmembrane potential (ΔΨm) quantification. PCD was recorded in a FACSCanto II (BD Biosciences) in the total population (10,000 cells), and data were analyzed using FlowJo software. […] Calreticulin cell surface exposure was recorded with anti-calreticulin-PE (clone FMC75; Assay Designs). […]

The next data set deals with CLL cells. Kind of data set: Caspase activity (FAM caspase detection kit) in CLL cells. It counts as cell-based, human. Conditions: PKHB1 200 μM, 2 h; etoposide 250 μM, 12 h; representative CLL donor (Fig 2G).
Data set [2] is described as follows: Peptide degradation assay in human serum (HPLC). It counts as in vitro ADME. The following applies: peptide 10 mg/ml in 1:4 human serum/RPMI 1640, 37°C, absorbance 220 nm. As for the experimental part: 4N1K or PKHB1 (10 mg/ml), diluted in a 1:4 human serum/RPMI 1640 mixture, was incubated at 37°C for different lengths of time, then mixed with ethanol and 5 ml of 1 M NaOH and incubated at 4°C for at least 15 min to precipitate serum proteins. The supernatant was collected and injected in an HPLC system, and the soluble peptide was eluted by a linear gradient of 5% to 50% ACN (0.1% [v/v] TFA in acetonitrile) in aqueous 0.1% (v/v) TFA. The concentration of the peptide was calculated by the integration of the absorbance at 220 nm as a function of the retention time.

The target in data set [3] is CD47 (Homo sapiens, UniProt Q08722). Kind of data set: Binding to CD47 (fluorescence polarization, isothermal titration calorimetry, microscale thermophoresis). Conditions: isothermal titration calorimetry and microscale thermophoresis binding assays (methods per ref 82), read-out: Dissociation constant (Kd) to CD47. The text has this: Supplementary file pmed.1001796.s002.tif: S2 Fig Primary structure of 4NGG, 4N1K, and PKHB1. In 4NGG, the two central valines of 4N1K were replaced by glycines (highlighted in red). In PKHB1, the N- and C-terminal lysines of 4N1K were replaced with their D counterparts (highlighted in green). […] (TIF) Click here for additional data file.

Another data set deals with CD19-/CD3+ T cells. The experiment in a line: Cell death by Annexin-V/PI in T cells of CLL patients. It counts as cell-based, human. The following applies: 200 μM, 2 h; n = 8 (Fig 1G). As for the experimental part:
as §2, with “lymphocytes. […]” for “lymphocytes.”

The nature of data set [4]: Mice toxicity studies (hematology, kidney and liver histology). It counts as in vivo, mouse (NSG. Conditions: weekly intraperitoneal injection, 10 mg/kg, 3 wk, NSG or C57BL/6 mice (S9 Fig). As for the experimental part:
In mice toxicity studies, we used the same injection protocol as in xenografted NSG mice. The hematological parameters were monitored in blood drawn from the retro-orbital plexus from either vehicle- (PBS) or PKHB1-treated wild-type mice (C57BL/6) with an MS9–5 analyzer (Melet Schloesing). Kidneys and livers (24 h after the third injection of PBS or PKHB1) were fixed and embedded in paraffin. Paraffin sections ([…] thick) of kidney and liver were deparaffinized and rehydrated before staining with periodic acid—Schiff and hematoxylin-eosin, respectively.

The test system of another data set is MEC-1 tumors. The experiment in a line: CLL-xenograft model: MEC-1 tumors in NSG mice. It is filed as in vivo, mouse (NOD/scid gamma). Conditions: weekly intraperitoneal injection; n = 8 per group (Fig 7C). How it is done: In the CLL-xenograft model, MEC-1 cells (3 × 10^6) were injected subcutaneously into NOD/scid gamma (NSG) mice. When the tumor volume reached 100 mm^3, mice received intraperitoneal injections of PBS, PKHB1, or 4N1K (200 μg in 200 μl of PBS) once a week. Tumor size was measured with a caliper, and tumor volume was calculated using the formula (length × width^2)/2 and expressed in cubic millimeters. Alternatively, at 28 d after the engraftment, XenoLight RediJect 2-DG 750 Probe (Caliper) was injected into the retro-orbital sinus to visualize tumor glucose uptake, which reflects cell proliferation. Fluorescence was measured using an in vivo imaging system FX Pro (Kodak), and pictures were analyzed with Carestream Molecular Imaging software.
To determine hemoglobin levels, tumors were excised from euthanized mice, weighed, and homogenized in PBS. After centrifugation, formic acid was added to the supernatant, and the hemoglobin concentration was calculated based on the absorbance at 405 nm.
To assess PCD, calreticulin exposure, and PLCγ1-Y783, dissociated tumors were digested in medium containing Liberase-TL (Roche), DNase-I (Calbiochem), and Collagenase-IV (Life Technologies). Single-cell suspension, obtained by filtering through a […] cell strainer, was analyzed by flow cytometry.

Data set [5] concerns CD19+/CD5- B cells (residual B cells). Kind of data set: Cell death by Annexin-V/PI in residual B cells of CLL patients. It counts as cell-based, human. Conditions: 200 μM, 2 h; n = 20 (Fig 1G). As for the experimental part:
as §2, with “lymphocytes. […]” for “lymphocytes.”

Data set [6] deals with T1, CD47 (UniProt Q08722 19-323).
T1 construct: CD47; in the cell death assays it is the endogenous CD47 on human CLL B cells; the CD47 preparation is not described; also called cell surface receptor CD47
The experiment in a line: fluorescence polarisation + ITC + MST; not told; one Kd is printed for each peptide for the three methods together; the legend refers to ref. 82. (In general: Fluorescence polarisation rises when a labelled molecule tumbles more slowly, as on binding a larger partner.)

Consider eleven molecules from PMC4348493, “CD47 Agonist Peptides Induce Programmed Cell Death in Refractory Chronic Lymphocytic Leukemia B Cells via PLCγ1 Activation: Evidence from Mice and Humans” (PLoS Medicine, 2015).

“Also recorded” adds a separate entry of the source. Ends that are not written are not given here.

T1 sequence (Q08722 19-323): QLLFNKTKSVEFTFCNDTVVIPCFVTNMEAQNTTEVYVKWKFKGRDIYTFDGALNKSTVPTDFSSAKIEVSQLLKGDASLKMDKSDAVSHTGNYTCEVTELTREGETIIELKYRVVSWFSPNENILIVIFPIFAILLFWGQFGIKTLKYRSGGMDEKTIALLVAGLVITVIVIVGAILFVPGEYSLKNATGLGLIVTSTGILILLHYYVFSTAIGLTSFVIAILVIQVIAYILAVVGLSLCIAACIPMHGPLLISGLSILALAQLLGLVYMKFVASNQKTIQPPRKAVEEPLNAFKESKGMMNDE
Chain of CD47 (Homo sapiens, UniProt Q08722) (Q08722 19-323): as above

For the molecule `NCCOB(c1ccccc1)c1ccccc1` [2-APB, 2-aminoethoxydiphenyl borate], the “Effect of pre-incubation on PKHB1-mediated cell death in CLL cells” value (shortened to “Effect of pre-incubation”) in data set [1] (2 h) is given as “significantly decreased”.

Turning to `COc1cc([C@@H]2c3cc4c(cc3[C@@H](O[C@@H]3O[C@@H]5CO[C@@H](C)O[C@H]5[C@H](O)[C@H]3O)[C@H]3COC(=O)[C@H]23)OCO4)cc(OC)c1O` [etoposide], the “Cell death response of MEC-1 cells (dysfunctional TP53)” value in the data set on MEC-1 cells is reported as “resistant to etoposide treatment”. Also, the “Cell death response with microenvironment survival signals (sCD40L + IL-4 or M210B4 bone marrow stromal cells)” value in data set [1] (PKHB1 200 μM, 2 h, etoposide 250 μM, 12 h, n = 8 patients (Fig 2B)) was “significantly diminished”. The “Activated caspases, positive cells” value in the data set on CLL cells is given as ~ 47%.

Take `CSCC[C@H](NC(=O)[C@@H](NC(=O)[C@@H](NC(=O)[C@H](Cc1ccc(O)cc1)NC(=O)[C@H](Cc1ccccc1)NC(=O)[C@H](CCCNC(=N)N)NC(=O)[C@@H](N)CCCCN)C(C)C)C(C)C)C(=O)N[C@@H](Cc1c[nH]c2ccccc12)C(=O)N[C@@H](CCCCN)C(=O)N[C@@H](CCCCN)C(=O)O` [4N1K]: in data set [1], the “Cytotoxicity / PCD in CLL cells (Annexin-V and PI co-positivity)” value was ~ 25%. The metabolised at 1 h, 10 mg/ml in data set [2] (human serum diluted 1:4 in RPMI 1640, 1-h incubation, serum proteins precipitated with ethanol/NaOH, read-out: Peptide degraded in human serum) was > 90%.

As for `CC(=O)OCOC(=O)CN(CC(=O)OCOC(C)=O)c1ccccc1OCCOc1ccccc1N(CC(=O)OCOC(C)=O)CC(=O)OCOC(C)=O` [BAPTA-AM], the “Effect of pre-incubation” value in data set [1] (2 h) is on record as “significantly decreased”.

One may read the Kd as the equilibrium constant for the complex coming apart. Consider KRFYGGMWKK [4NGG], for which the dissociation constant Kd at CD47 [3] amounted to 1000 µM.

For the molecule `O=C(O)CN(CC(=O)O)c1ccccc1OCCOc1ccccc1N(CC(=O)O)CC(=O)O` [BAPTA], the “Effect of pre-incubation” value in data set [1] (2 h) is given as “abolished”.

As for `O=C1CN(/N=C/c2ccc(-c3ccc([N+](=O)[O-])cc3)o2)C(O)=N1` [dantrolene], the “Effect of pre-incubation” value in data set [1] (2 h) was “significantly decreased”.

Turning to `CSCC[C@H](NC(=O)[C@@H](NC(=O)[C@@H](NC(=O)[C@H](Cc1ccc(O)cc1)NC(=O)[C@H](Cc1ccccc1)NC(=O)[C@H](CCCNC(=N)N)NC(=O)[C@H](N)CCCCN)C(C)C)C(C)C)C(=O)N[C@@H](Cc1c[nH]c2ccccc12)C(=O)N[C@@H](CCCCN)C(=O)N[C@H](CCCCN)C(=O)O` [PKHB1], the “Cytotoxicity in T cells of CLL patients” value in the data set on CD19-/CD3+ T cells is ~ 10%. In [1], the “Cytotoxicity / PCD in CLL cells (Annexin-V and PI co-positivity)” value was ~ 49%. Besides, in [4], the “Blood, liver, kidney toxicity” value is recorded as “no toxic effect; also recorded: No blood, liver, or kidney toxicity”. Moreover, the “Degradation during long-term incubation in human serum” value in data set [2] (long-term incubation) is given as “not degraded”. Moreover, in the data set on MEC-1 tumors, the “Anemia (hemoglobin levels within the engrafted tumors)” value is given as “did not provoke anemia”. For the same molecule, the “Cytotoxicity in residual CD5- B lymphocytes of CLL patients” value in [5] is ~ 5%.

On to `COc1ccc2c(c1)CC[C@@H]1[C@@H]2CC[C@]2(C)[C@@H](NCCCCCCN3C(=O)C=CC3=O)CC[C@@H]12` [U73122], for which the “Effect of pre-incubation” value in data set [1] (2 h) is “significantly decreased PCD”.

B1: 4N1K (peptide)
peptide: KRFYVVMWKK
notes: N-terminal lysine introduced to improve solubility, not part of thrombospondin-1; stretch of the C-terminal domain of thrombospondin-1 (TSP1); C-terminal lysine introduced to improve solubility, not part of thrombospondin-1; also called K-R-F-Y-V-V-M-W-K-K; TSP1-derived decapeptide; source: synthetic peptide (solid-phase synthesis, purified by reverse phase HPLC, purity greater than 95%)
For B1, in the data set with CD47 [6], the dissociation constant Kd came out at 1.5 µM.

B2: PKHB1 (peptide)
peptide: KRFYVVMWKK
modifications: D-lysine at the N-terminus and D-lysine at the C-terminus (printed as lower-case k)
notes: N-terminal lysine, not part of thrombospondin-1 (introduced in 4N1K to improve solubility); here the D analogue; stretch of the C-terminal domain of thrombospondin-1 (TSP1); C-terminal lysine, not part of thrombospondin-1 (introduced in 4N1K to improve solubility); 4N1K with its N- and C-terminal lysines replaced by their D counterparts; also called k-R-F-Y-V-V-M-W-K-k; source: synthetic peptide …
In the case of B2, the equilibrium dissociation constant (Kd) with CD47 [6] worked out at 0.4 µM.
